Key:
Format in all cases: cell-based
Conditions in all cases: mean ±SD
[1] = test system: LAPC4 (human prostate adenocarcinoma); assay: Cytotoxic activity, LAPC4
Procedure: (§1) Compounds presented in Table 6 were also tested in the following cell lines: PC-3 (human prostate adenocarcinoma), LNCaP (human prostate adenocarcinoma), LAPC4 (human prostate adenocarcinoma) and HT-29 (human colon adenocarcinoma).

[2] = test system: LNCaP (human prostate adenocarcinoma); assay: Cytotoxic activity, LNCaP
Procedure: as §1

[3] = test system: PC-3 (human prostate adenocarcinoma); assay: Cytotoxic activity, PC-3
Procedure: as §1

In the case of `C=C(C)[C@@H]1CC[C@]2(CO)CC[C@]3(C)[C@H](CC[C@@H]4[C@@]5(C)CC[C@H](OC(=O)n6ccnc6)C(C)(C)[C@@H]5CC[C@]43C)[C@@H]12` [Compound 20, 28-hydroxy-lup-20(29)-en-3β-yl-1H-imidazole-1-carboxylate], the IC50 [1] is reported as 16.4 ± 2.1 µM, the IC50 [2] is reported as 15 ± 1.8 µM and the IC50 [3] is reported as 9.2 ± 0.7 µM.
Compound `C=C(C)[C@@H]1CC[C@]2(C(=O)n3ccnc3)CC[C@]3(C)[C@H](CC[C@@H]4[C@@]5(C)CCC(=O)C(C)(C)[C@@H]5CC[C@]43C)[C@@H]12` [Compound 44, 28-(1H-imidazol-1-yl)-lup-20(29)-en-3,28-dione] has an IC50 [1] of 17.2 ± 2.3 µM, an IC50 [2] of 13.7 ± 0.5 µM and an IC50 [3] of 6.9 ± 1.1 µM.
